Data taken from patent US4826814A, “Tripeptide derivatives” (Dainippon Pharmaceutical Co., Ltd., priority 1986, dated 1989).
Starred links: 1 amine or outer side, 2 acyl side, 3 side chain; linkers in the order of their positions; H or OH if unused. Non-standard residues stand in square brackets, D forms with d. Residues, ends and D or L forms follow the SMILES beside them. *: point of attachment. d(γGlu) = O=C(O)[C@@H](CCC(=O)[*:2])N[*:1]; Oic = O=C(O)[C@@H]1C[C@@H]2CCCC[C@@H]2N1; Nicotinoyl = O=C(c1cccnc1)*; Orn = NCCC[C@H](N)C(=O)O; Cbz = O=C(OCc1ccccc1)*

Columns and labels:
renal hypertensive rats = test: Antihypertensive activity after single oral administration in two-kidney Goldblatt type renal hypertensive rats (tail-cuff blood pressure); type: in vivo, rat; details: for Charge in pressure at 9 hours administration: blood pressure, renal hypertensive rats, single oral administration; for antihypertensive action after oral administration: in vivo test with rats
Source text: Male Sprague Dawley rats (5 weeks old) were subjected to constriction of the left renal artery with a silver clip (internal diameter: 0.22 mm) under light ether anesthesia. The right kidney and renal artery were left intact. About 6-10 weeks after clipping, rats showing a blood pressure above 180 mmHg were used. These treated rats are named two-kidney Goldblatt type renal hypertensive rats and considered as a typical model of reninangiotensin dependent hypertension.
The blood pressure was measured by a tail-cuff method using a programmed electro-sphygmomanometer (PE-300, Narco Biosystem, U. S. A.) after warming at 38° C. for 10 minutes in heating box.
The antihypertensive activity of test compounds was evaluated after single oral administration in renal hypertensive rats (3-5 rats/group).

[1] = target: angiotensin converting enzyme (ACE) (Homo sapiens, UniProt P12821); details: stated by the publication of Ksander et al.; cited from earlier work
angiotensin converting enzyme (ACE), sequence (P12821 30-1306, species assumed): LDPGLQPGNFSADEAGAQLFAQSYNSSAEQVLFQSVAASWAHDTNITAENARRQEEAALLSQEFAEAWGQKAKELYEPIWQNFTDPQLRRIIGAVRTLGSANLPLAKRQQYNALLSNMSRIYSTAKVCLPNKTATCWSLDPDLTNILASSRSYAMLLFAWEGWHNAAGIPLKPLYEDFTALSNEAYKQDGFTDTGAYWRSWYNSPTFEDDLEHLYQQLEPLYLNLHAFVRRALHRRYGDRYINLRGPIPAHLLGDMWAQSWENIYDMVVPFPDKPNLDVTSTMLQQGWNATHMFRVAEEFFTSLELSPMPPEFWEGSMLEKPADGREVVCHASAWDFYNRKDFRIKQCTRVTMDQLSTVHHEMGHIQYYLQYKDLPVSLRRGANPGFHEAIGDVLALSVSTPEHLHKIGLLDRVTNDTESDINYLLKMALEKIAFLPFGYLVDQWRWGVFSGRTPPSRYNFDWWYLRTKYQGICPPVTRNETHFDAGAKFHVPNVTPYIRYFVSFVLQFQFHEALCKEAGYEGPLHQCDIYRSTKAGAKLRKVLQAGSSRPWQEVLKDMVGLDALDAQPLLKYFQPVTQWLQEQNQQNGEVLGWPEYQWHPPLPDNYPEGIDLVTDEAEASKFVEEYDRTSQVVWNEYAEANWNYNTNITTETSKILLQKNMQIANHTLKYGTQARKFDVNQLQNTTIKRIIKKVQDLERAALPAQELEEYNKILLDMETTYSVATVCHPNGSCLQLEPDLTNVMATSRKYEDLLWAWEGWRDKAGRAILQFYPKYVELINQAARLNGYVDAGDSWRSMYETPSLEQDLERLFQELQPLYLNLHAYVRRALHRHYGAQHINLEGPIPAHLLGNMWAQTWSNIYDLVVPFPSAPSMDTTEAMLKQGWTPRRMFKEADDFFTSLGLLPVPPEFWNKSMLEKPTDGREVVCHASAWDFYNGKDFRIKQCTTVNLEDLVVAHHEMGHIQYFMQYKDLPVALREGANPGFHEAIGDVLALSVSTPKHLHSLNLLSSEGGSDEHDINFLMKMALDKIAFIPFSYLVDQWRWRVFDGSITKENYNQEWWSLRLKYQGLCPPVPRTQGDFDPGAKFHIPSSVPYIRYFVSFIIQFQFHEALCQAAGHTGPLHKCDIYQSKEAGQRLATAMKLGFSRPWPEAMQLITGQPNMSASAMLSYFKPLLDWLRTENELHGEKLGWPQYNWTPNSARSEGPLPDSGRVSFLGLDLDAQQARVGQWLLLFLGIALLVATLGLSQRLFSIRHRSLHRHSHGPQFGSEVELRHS

[2] = target: T1, ACE preparation (rabbit lung) (Oryctolagus cuniculus, UniProt P12822); test: In vitro ACE inhibitory activity (hippuryl-L-histidyl-L-leucine substrate); type: biochemical; details: 37° C., 30 minutes, pH 8.3
T1 construct: an ACE preparation (rabbit lung); from tissue; host or cells: rabbit lung
T1 sequence (P12822 34-1310): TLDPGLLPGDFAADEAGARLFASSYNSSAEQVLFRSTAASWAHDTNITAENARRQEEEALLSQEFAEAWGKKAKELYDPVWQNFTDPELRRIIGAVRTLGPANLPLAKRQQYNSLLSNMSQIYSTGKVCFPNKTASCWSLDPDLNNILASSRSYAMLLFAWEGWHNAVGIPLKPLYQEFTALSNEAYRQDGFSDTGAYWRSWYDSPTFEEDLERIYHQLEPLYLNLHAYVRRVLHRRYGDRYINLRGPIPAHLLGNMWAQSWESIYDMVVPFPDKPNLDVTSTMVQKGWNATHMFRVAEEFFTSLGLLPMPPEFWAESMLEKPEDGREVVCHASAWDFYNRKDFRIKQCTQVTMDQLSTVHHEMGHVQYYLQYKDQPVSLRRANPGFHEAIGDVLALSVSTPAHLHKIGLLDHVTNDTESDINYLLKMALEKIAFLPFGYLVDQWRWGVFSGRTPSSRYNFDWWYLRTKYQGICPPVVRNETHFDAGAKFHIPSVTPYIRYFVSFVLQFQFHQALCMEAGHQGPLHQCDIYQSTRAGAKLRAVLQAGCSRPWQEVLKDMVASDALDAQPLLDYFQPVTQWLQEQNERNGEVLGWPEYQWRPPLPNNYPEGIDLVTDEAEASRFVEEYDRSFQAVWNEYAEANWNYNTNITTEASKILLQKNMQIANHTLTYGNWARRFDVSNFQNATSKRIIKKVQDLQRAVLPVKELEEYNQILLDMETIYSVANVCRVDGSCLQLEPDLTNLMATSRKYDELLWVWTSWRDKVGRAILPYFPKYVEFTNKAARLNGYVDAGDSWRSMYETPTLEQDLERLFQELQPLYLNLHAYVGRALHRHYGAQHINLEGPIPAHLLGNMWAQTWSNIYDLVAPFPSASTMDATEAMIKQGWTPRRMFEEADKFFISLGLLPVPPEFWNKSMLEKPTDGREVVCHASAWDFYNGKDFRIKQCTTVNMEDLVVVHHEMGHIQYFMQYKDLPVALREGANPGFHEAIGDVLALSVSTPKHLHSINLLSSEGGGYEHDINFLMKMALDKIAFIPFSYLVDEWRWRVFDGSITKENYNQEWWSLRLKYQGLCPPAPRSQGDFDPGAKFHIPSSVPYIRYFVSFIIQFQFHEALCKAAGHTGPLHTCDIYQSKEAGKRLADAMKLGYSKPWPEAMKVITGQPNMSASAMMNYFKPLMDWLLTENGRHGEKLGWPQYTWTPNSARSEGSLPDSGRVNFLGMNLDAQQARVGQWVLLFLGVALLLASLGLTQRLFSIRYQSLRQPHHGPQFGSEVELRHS
Method: The assay medium contained an ACE preparation (rabbit lung), synthetic substrate (hippuryl-L-histidyl-L-leucine 5 mM), NaCl (300 mM) and phosphate buffer (100 mM, pH 8.3). It was mixed to a final volume of 0.300 ml and incubated at 37° C. for 30 minutes in the presence or absence of test compounds. After the reaction was terminated by adding 300 μl of 1N HCl, hippuric acid formed was extracted with 2 volume of ethyl acetate. After ethyl acetate was evaporated and distilled water was added, the hippuric acid was determined from its absorbance at 228 nm by spectrophotometer (Hitachi 100-41).
The degree of ACE inhibition was calculated from activities with and without test compounds. The IC50 value (molar concentration required for the 50% inhibition of ACE activity) was obtained from a dose-inhibition curve.

Male STD-ddy strain mice = test: Toxicity: oral LD50 in mice; type: in vivo
Source text: Male STD-ddy strain mice weighing about 22 to 25 g were used.

IC50 [2] [nM]	Structure (SMILES)	Charge in pressure at 9 hours administration (renal hypertensive rats; dose of 10 mg/kg)	further results
–	NCCCC[C@H](NC(=O)c1ccncc1)C(=O)N[C@H](CCC(=O)N1[C@H](C(=O)O)C[C@@H]2CCCC[C@@H]21)C(=O)O [Example 29, (2S,3aS,7aS)-1-(N^2 -Isonicotinoyl-L-lysyl-gamma-D-glutamyl)octoahydro-1H-indole-2-carboxylic acid]	-38	–
–	O=C(NCCCC[C@H](NC(=O)OCc1ccccc1)C(=O)N[C@H](CCC(=O)N1c2ccccc2C[C@H]1C(=O)O)C(=O)O)OCc1ccccc1 [1-(N^2,N^6dibenzyloxycarbonyl-L-lysyl-γ-D-glutamyl)indoline-2(S)carboxylic acid, reference compound]	–	Charge in pressure at 9 hours administration (renal hypertensive rats; dose of 30 mg/kg): -2; antihypertensive action after oral administration (renal hypertensive rats): do not show any significant antihypertensive action; in vitro inhibition of ACE [1]: show in vitro inhibition of ACE
–	NCCCC[C@H](NC(=O)OCCc1ccccn1)C(=O)N[C@H](CCC(=O)N1c2ccccc2C[C@H]1C(=O)O)C(=O)O [Example 38, 1-[N^2-(2-Pyridineethoxycarbonyl)-L-lysyl-gamma-D-glutamyl]indoline-2(S)-carboxylic acid]	-27	–
–	NCCCC[C@H](NC(=O)OCc1ccccc1)C(=O)N[C@H](CCC(=O)N1[C@H](C(=O)O)C[C@@H]2CCCC[C@@H]21)C(=O)O [Example 11, (2S,3aS,7aS)-1-(N^2 -Benzyloxycarboxyl-L-lysyl-gamma-D-glutamyl)octahydro-1H-indole-2-carboxylic acid] (Cbz-Lys-[d(γGlu)]-[Oic]-OH)	-37	–
18.8	NCCCC[C@H](N)C(=O)N[C@H](CCC(=O)N1c2ccccc2C[C@H]1C(=O)O)C(=O)O [1-(L-lysyl-γ-D-glutamyl)indoline-2(S)carboxylic acid, reference compound]	–	antihypertensive action after oral administration (renal hypertensive rats): do not show any significant antihypertensive action; in vitro inhibition of ACE [1]: show in vitro inhibition of ACE
–	NCCCC[C@H](NC(=O)OC1CCCC1)C(=O)N[C@H](CCC(=O)N1[C@H](C(=O)O)C[C@@H]2CCCC[C@@H]21)C(=O)O [Example 30, (2S,3aS,7aS)-1-(N^2 -Cyclopentyloxycarbonyl-L-lysyl-gamma-D-glytamyl)octahydro-1H-indole-2-carboxylic acid]	-38	–
8.2	NCCCC[C@H](NC(=O)[C@@H]1Cc2ccccc2N1)C(=O)N[C@H](CCC(=O)N1[C@H](C(=O)O)C[C@@H]2CCCC[C@@H]21)C(=O)O [Example 56, (2S,3aS,7aS)-1-[N^2-(Indoline-2(S)-carbonyl)-L-lysyl-gamma-D-glutamyl]octahydro-1H-indole-2-carboxylic acid]	–	–
–	NCCC[S+]([O-])C[C@H](NC(=O)OCc1ccccc1)C(=O)N[C@H](CCC(=O)N1[C@H](C(=O)O)C[C@@H]2CCCC[C@@H]21)C(=O)O (stereo partly drawn) [Example 76, (2S,3aS,7aS)-1-[N-Benzyloxycarbonyl-S-(3-aminopropyl)-L-cysteinyl-gamma-D-glutamyl]octahydro-1H-indole-2-carboxylic acid sulfoxide]	-31	–
22	NCCCC[C@H](NC(=O)C1CCC1)C(=O)N[C@H](CCC(=O)N1c2ccccc2C[C@H]1C(=O)O)C(=O)O [Example 36, 1-(N^2 -Cyclobutanecarbonyl-L-lysyl-gamma-D-glutamyl)-indoline-2(S)-carboxylic acid]	–	–
8.4	NCCCC[C@H](NC(=O)OC1CCCCC1)C(=O)N[C@H](CCC(=O)N1c2ccccc2C[C@H]1C(=O)O)C(=O)O [Example 4, 1-(N^2 -Cyclohexyloxycarbonyl-L-lysyl-gamma-D-glutamyl)indoline-2(S)-carboxylic acid]	–	–
–	NCCCC[C@H](NC(=O)C1CCC1)C(=O)N[C@H](CCC(=O)N1[C@H](C(=O)O)C[C@@H]2CCCC[C@@H]21)C(=O)O [Example 18, (2S,3aS,7aS)-1-(N^2 -Cyclobutanecarbonyl-L-lysl-gamma-D-glutamyl)octahydro-1H-indole-2-carboxylic acid]	-42	–
4.9	NCCC[C@H](NC(=O)OCc1ccccc1)C(=O)N[C@H](CCC(=O)N1[C@H](C(=O)O)C[C@@H]2CCCC[C@@H]21)C(=O)O [Example 14, (2S,3aS,7aS)-1-(N^2 -Benzyloxycarbonyl-L-ornithinyl-gamma-D-glutamyl)octahydro-1H-indole-2-carboxylic acid] (Cbz-[Orn]-[d(γGlu)]-[Oic]-OH)	–	–
27	NCCCC[C@H](NC(=O)C1CCCCC1)C(=O)N[C@H](CCC(=O)N1c2ccccc2C[C@H]1C(=O)O)C(=O)O [Example 71, 1-(N^2 -Cyclohexylcarbonyl-L-lysyl-gamma-D-glutamyl)indoline-2(S)-carboxylic acid]	–	–
36	NCCCC[C@H](NC(=O)[C@@H]1CCCN1)C(=O)N[C@H](CCC(=O)N1c2ccccc2C[C@H]1C(=O)O)C(=O)O [Example 9, 1-(L-prolyl-L-lysyl-gamma-D-glutamyl)indoline-2(S)-carboxylic acid]	–	–

Structure (SMILES)	IC50 [2] [nM]	Charge in pressure at 9 hours administration (renal hypertensive rats; dose of 10 mg/kg)	further results
NCCCC[C@H](NC(=O)c1ccc(O)cc1)C(=O)N[C@H](CCC(=O)N1[C@H](C(=O)O)C[C@@H]2CCCC[C@@H]21)C(=O)O [Example 51, (2S,3aS,7aS)-1-[N^2-(4-Hydroxybenzoyl)-L-lysyl-gamma-D-glutamyl)octahydro-1H-indole-2-carboxylic acid]	5.2	–	oral LD50 (Male STD-ddy strain mice): more than 3,000 mg per kilogram of body weight
NCCCC[C@H](NC(=O)c1cccnc1)C(=O)N[C@H](CCC(=O)N1[C@H](C(=O)O)C[C@@H]2CCCC[C@@H]21)C(=O)O [Example 15, (2S,3aS,7aS)-1-(N^2 -Nicotinoyl-L-lysyl-gamma-D-glutamyl)octahydro-1H-indole-2-carboxylic acid] (Nicotinoyl-Lys-[d(γGlu)]-[Oic]-OH)	6.4	–	oral LD50 (Male STD-ddy strain mice): more than 3,000 mg per kilogram of body weight
